These results are taken from patent US11883426B2, “Treatment for methamphetamine cardiovascular disease” (priority 2020, dated 2024).

Data set [1] is described as follows: Sulfide release with Sugammadex in WT and CSE knockout mice. As to conditions: single injection 0.2 mg/kg. Type of data set: in vivo, mouse. Here is the method:
. Free sulfide was measured using 50 μl of plasma with MBB; whereas for detection of ALS and BSS, 50 μl of plasma was added separately into two sets of 4 mL BD vacutainer tubes. […]. Following a 30-min incubation on a nutator, the reaction liquid was removed, and the evolved sulfide gas subsequently trapped by adding 500 μl of 100 mM Tris-HCl buffer (pH 9.5, 0.1 mM DTPA) into the BD vacutainer tube and incubated again for 30 min on a nutator mixer. […]. Determination of ALS was made by reacting plasma samples with acidic phosphate buffer alone and subsequent trapping of evolved sulfide. Measurement of BSS was determined by subtracting the acid labile value from the total sulfide protocol containing TCEP reductant treatment under acidic conditions. […].
In clinical practice, sugammadex is administered at a dose of 4 mg/kg to up to 16 mg/kg for its current use. In the inventors' mice studies, the inventors used a single injection of 0.2 mg/kg for pharmacokinetic studies, which was a 20 to 80 times lower than the clinical usage of sugammadex.

Data set [2] can be described thus: Sulfide release with Sugammadex in human plasma. The settings on record: human blood. Here is the method: (§1) . Free sulfide was measured using 50 μl of plasma with MBB; whereas for detection of ALS and BSS, 50 μl of plasma was added separately into two sets of 4 mL BD vacutainer tubes. […]. Following a 30-min incubation on a nutator, the reaction liquid was removed, and the evolved sulfide gas subsequently trapped by adding 500 μl of 100 mM Tris-HCl buffer (pH 9.5, 0.1 mM DTPA) into the BD vacutainer tube and incubated again for 30 min on a nutator mixer. […]. Determination of ALS was made by reacting plasma samples with acidic phosphate buffer alone and subsequent trapping of evolved sulfide. Measurement of BSS was determined by subtracting the acid labile value from the total sulfide protocol containing TCEP reductant treatment under acidic conditions. […]

Data set [3] addresses T1, CSE (Homo sapiens, UniProt P32929). The experiment in a line: CSE activity with Sugammadex in human plasma. Set-up: from tissue; host or cells: human blood plasma (lithium heparin). As for the experimental part:
(§2) 2.9 Cystathionine γ-lyase (CSE) activity measurement: CSE activity was measured as previously reported. Plasma or tissue lysates were incubated with 2 mM cystathionine, 0.25 mM pyridoxal 5′-phosphate in 100 mM Tris-HCl buffer (pH 8.3) for 60 min at 37° C. 10% Trichloroacetic acid was added into reaction mixture. After centrifugation, the supernatant was mixed with 1% ninhydrin reagent and incubated for 5 min in a boiling-water bath. After heating, the solution was cooled on ice for 2 minutes and color reaction development measured 20 minutes at 455 nm using a spectrophotometer (Biotek). CSE activity was assessed by cystathionine consumption and enzyme activity expressed as fold change calculated from nanomoles of cystathionine consumed per mg of total protein per hour of incubation.

Data set [4] has as its system H2S. The class given is in vivo, mouse.
Data set [5] has as its system NO. Description: NO metabolite measurements in mouse plasma and skeletal muscle. Type of data set: in vivo.
Another data set relates to skeletal muscle tissue. The class given is in vivo, mouse.
In data set [6] the test system is CSE, p-eNOS and total eNOS. The experiment in a line: Western blot of mouse skeletal muscle. The settings on record: methamphetamine treated mice. The class given is in vivo. Here is the method:
(§3) 2.4 ‘Binge and crash’ mouse methamphetamine model: Twelve-week-old male WT (C57BL6/J) male mice were used for these experiments. Mice were exposed to methamphetamine according to a known protocol that models binge methamphetamine exposure in humans. C57BL/6 male mice received 0-6 mg/kg methamphetamine (Methamphetamine HCl, Sigma-Aldrich, St. Louis, Mo.) through subcutaneous (s.c.) injection five days in a week for four weeks. Methamphetamine was dissolved in a sterile saline (Sigma-Aldrich) solution (0.9% w/v NaCl). Vehicle treated mice received the same volume of saline at all-time points for four weeks. Briefly, methamphetamine-exposed and saline-control mice were injected subcutaneously with methamphetamine or saline in a volume of 5 ml/kg with an insulin syringe. Alternating sites of injection were used to avoid any possible damage to tissue and possible stress of the animal. The dose of methamphetamine was escalated over the course of the first cycle, which occurs during the first week of injections (days 1-5) followed by three weeks of repeated cycles of meth injections (days 8-12, 15-19, and 22-26). Mice received 4 injections per day, 2 hours apart with doses of meth including 0, 1, 2, 3, 4, 5, and 6 mg/kg subcutaneously. At the end of the 4 weeks, mice were sacrificed by isoflurane overdose, plasma and tissue were harvested.
2.10 Western blot analysis: Mouse skeletal muscle tissues were homogenized in a solution containing 50 mM Tris buffer (pH 7.4), 2 mM EDTA, 5 mM EGTA, 0.1% SDS, a protease inhibitor cocktail (Roche, Indianapolis, Ind.), and phosphatase inhibitor cocktail type I and II (Sigma, Saint Louis, Mo.). Homogenates were centrifuged at 500×g for 15 min and supernatants were collected. Protein concentrations were analyzed using the Bradford protein assay (BIORAD, Hercules, Calif.). […] Chemiluminescent bands were detected and quantified using NIH Image J software.
(In general: Immunoblotting shows a protein as a band on a membrane.)

The test system of another data set is superoxide. Description: Oxidative stress measurement (DHE staining) in skeletal muscle. Type of data set: in vivo, mouse. As to conditions: skeletal muscle sections, methamphetamine vs saline. As for the experimental part: as §3, with “The dose of methamphetamine was escalated over the course of the first cycle, which occurs during the first week of injections (days 1-5) followed by three weeks of repeated cycles of meth injections (days 8-12, 15-19, and 22-26). Mice received 4 injections per day, 2 hours apart with doses of meth including 0, 1, 2, 3, 4, 5, and 6 mg/kg subcutaneously. At the end of the 4 weeks, mice were sacrificed by isoflurane overdose, plasma and tissue were harvested.” left out
2.12 Oxidative Stress measurement: Levels of oxidative stress were measured by staining skeletal muscle tissue sections with 5 μM Dihydroethidium (DHE; Sigma-Aldrich, CA USA) and visualized using a NIKON ECLIPSE Ti-E microscope (Nikon Instruments Inc., Melville, N.Y.) for image acquisition. […]

Data set [7] deals with CSE. Type of data set: in vivo, mouse. The settings on record: skeletal muscle tissues of methamphetamine treated mice.
In data set [8] the test system is H2S. Description: Sulfide pools in plasma of human methamphetamine users. The settings on record: methamphetamine-users vs age matched healthy controls. Here is the method: 2.6 Human blood collection: Human subjects were interviewed, and medical record data were collected for analysis of methamphetamine-use. Blood samples were collected from already-established catheterization into 6 mL BD vacutainer tubes with lithium heparin. Samples were transported to the lab within 15 min on ice and were centrifuged at 1500 RCF for 4 min at 4° C.
as §1

For data set [9], the system named is NO. Description: Total NO in plasma of human methamphetamine users. As to conditions: methamphetamine-users vs healthy controls.
The test system of a further data set is femoral artery. The settings on record: mouse, in vivo.
Data set [10] deals with T1, CSE. Description: CSE enzyme activity in endothelial cells. The class given is cell-based. Set-up: host or cells: HUVEC. The settings on record: HUVECs, 100 μM, 30 min, vs PBS control. As for the experimental part:
2.2 Cell culture and treatments: Human umbilical vein endothelial cells (HUVECs) were purchased from Lifeline Cell Technology (Cat. No. FC-0044) and cultured in VascuLife® Basal Medium (Cat. No. LM-0002) supplemented with the appropriate LifeFactors® Kit (No. LL-0003). All cells were grown in tissue culture flasks at 37° C. and 5% CO2. HUVECs from passages 2-4 were used in the experiments.
as §2

Where [11] appears, read: 4-week binge and crash methamphetamine.
Setting [12] is: 4-week binge and crash methamphetamine vs controls.
Setting [13] is: skeletal muscle, methamphetamine treated mice.
Where [14] appears, read: skeletal muscle, methamphetamine treatment.

Where a name gives a salt, the structure may show the parent alone.

T1 sequence (P32929 whole entry): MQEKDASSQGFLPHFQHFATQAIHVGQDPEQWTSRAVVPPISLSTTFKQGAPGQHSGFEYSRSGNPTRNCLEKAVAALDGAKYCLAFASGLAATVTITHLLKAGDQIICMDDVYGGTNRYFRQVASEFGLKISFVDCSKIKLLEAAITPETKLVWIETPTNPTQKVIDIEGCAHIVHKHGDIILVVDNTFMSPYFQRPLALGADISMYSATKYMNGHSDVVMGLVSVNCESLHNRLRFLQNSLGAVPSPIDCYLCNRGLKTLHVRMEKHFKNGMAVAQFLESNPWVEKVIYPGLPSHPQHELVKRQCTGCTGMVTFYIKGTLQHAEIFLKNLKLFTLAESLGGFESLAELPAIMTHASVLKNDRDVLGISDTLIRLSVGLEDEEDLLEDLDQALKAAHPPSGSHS

Take `O=C([O-])CCSC[C@@H]1OC2O[C@@H]3[C@@H](O)[C@H](O)C(O[C@@H]4[C@@H](O)[C@H](O)C(O[C@@H]5[C@@H](O)[C@H](O)C(O[C@@H]6[C@@H](O)[C@H](O)C(O[C@@H]7[C@@H](O)[C@H](O)C(O[C@@H]8[C@@H](O)[C@H](O)C(O[C@@H]9[C@@H](O)[C@H](O)C(O[C@@H]1[C@@H](O)[C@@H]2O)O[C@H]9CSCCC(=O)[O-])O[C@H]8CSCCC(=O)[O-])O[C@H]7CSCCC(=O)O)O[C@H]6CSCCC(=O)O)O[C@H]5CSCCC(=O)O)O[C@H]4CSCCC(=O)[O-])O[C@H]3CSCCC(=O)[O-].[Na+].[Na+].[Na+].[Na+].[Na+]` [Sugammadex]: the plasma sulfide levels entry in [1] (CSE knockout mice) was “increases”. Also, in data set [1] (wild type mice), the plasma sulfide levels result is listed as “increases”. For the same compound, in [2], the bound sulfane sulfur entry was “increases” and the total sulfide levels result is “increases”. The “plasma CSE activity” value at CSE [3] was “increased”.
For `CN[C@@H](C)Cc1ccccc1` [methamphetamine, Methamphetamine hydrochloride], the “reduction in plasma total sulfide” value in the data set with H2S [4] (setting [11]) amounted to 3 fold. In addition, in the data set with H2S [4] (setting [12]), the plasma acid-labile sulfide entry was “significant reduction” and the “plasma bound sulfane sulfur” value was “significant reduction”. In the data set on NO [5] (setting [11]), the “plasma S-nitrosothiol (bound pool)” value was “decreased”, the plasma free nitrite entry is “decreased” and the “plasma total NO levels” value is listed as “two-fold reduction”. For the same compound, the “skeletal muscle total NO” value in the data set with NO [5] (methamphetamine treated mice vs saline) was “significantly reduced”. For the same compound, the eNOS expression result with skeletal muscle tissue (methamphetamine treated mice) is reported as “no change”. Moreover, in the data set on skeletal muscle tissue (setting [13]), the CBS gene expression entry is “no significant changes” and the CSE gene expression entry is on record as “significantly decreased”. In the data set with skeletal muscle tissue (setting [14]), the ICAM-1 expression result is listed as “concomitant increase” and the VCAM-1 expression entry is on record as “concomitant increase”. In the data set with skeletal muscle tissue (skeletal muscles, methamphetamine treatment), the NOx4 expression entry is listed as “marginal increase”. In data set [6], the CSE protein expression result was “decreased expressions”, the p-eNOS protein expression result is given as “decreased expressions” and the “total eNOS protein” value was “no change”. Besides, in the data set on superoxide, the “DHE fluorescence (oxidative stress)” value was “significant increase”. Also, the CSE activity entry with CSE [7] is reported as “significant decrease”. The acid-labile sulfide levels entry with H2S [8] is reported as “decrease”. For the same compound, the “total NO levels” value with NO [9] is given as “trend of decreasing”. In addition, in the data set with femoral artery, the “flow mediated vasodilation responses” value is recorded as “significantly blunted” and the “mean blood flow velocity recovery after occlusion removal” value is “significantly blunts”. The CSE enzyme activity entry at CSE [10] was “substantially decreased”.
